Measured values: patent publication US12606552B2, “Bifunctional compound, preparation method therefor, and use thereof” (SUZHOU KINTOR PHARMACEUTICALS, INC., priority 2020, dated 2026)

Key:
[1] = Pharmacokinetic studies of compounds in mice; format: in vivo; settings: male mice, intragastric administration 10 mg/kg, plasma
Description: Activity Assay Example 3: Pharmacokinetic Studies of Compounds in Mice
In this test, 3 male mice were selected and divided into 1 group, 3 mice/group. All animals were fasted overnight before administration.
The intragastric administration dose was 10 mg/kg, and the administration volume was 10 mL/kg.
2.2 Preparation of Drug Solution
According to the animal body weight combined with the administration dose, the amount of the required drug solution was calculated. An appropriate amount of the test substance was weighed, added with 5% of the final volume of ethanol for dissolution, then added with 5% of the final volume of SolutolHS15, and finally added with PBS to the final volume, and mixed by vortex and fully dissolved to obtain a solution for intragastric administration (1 mg/mL). All solutions were prepared for immediate use.
2.3 Method of Administration
Before administration, the drug solution was placed on a magnetic stirrer in the animal laboratory and stirred for at least 10 min. During the administration process, vortex was continued to ensure uniformity of the drug solution. The theoretical volume of gavage administration was 10 mL/kg, which was administered with a syringe equipped with a gavage needle.
Before administration, the animals were weighed and the body weight of the animals involved in the experiment was recorded, and the administration volume of each animal was calculated according to the body weight. After administration, animals were promptly transferred back to the experimental cages to collect samples.
2.4 Observation of Animal Status
After administration, whether animals had abnormal reactions was observed immediately. If there were no abnormal reactions, animals were observed twice a day during the experiment. If abnormal reactions were found, they should be recorded in time, and the number of observations should be increased until the animals returned to normal or to the end of the experiment.
2.5 Sample Collection and Preservation
All experimental animals were fasted overnight before administration, and blood was collected at corresponding time points into blood collection tubes containing heparin sodium anticoagulant. After the whole blood was collected, the blood collection tube was gently shaken and placed on ice immediately, and then centrifuged (4° C., 4000 rpm, 10 min) to collect supernatant plasma samples, which were stored in a refrigerator at −80° C. before analysis.
2.6 Plasma Sample Processing and Analysis
The collected plasma samples were handed over to the Pharmacokinetic department for sample extraction, and the test substances in the plasma were extracted by protein precipitation method using organic reagents containing internal standards (acetonitrile:plasma=4:1, v/v). The extracted processed samples were submitted for quantitative concentration analysis by LC-MS/MS. According to the plasma concentration of each animal obtained by the analysis, software Kinetica (version 5.0) was used to calculate the main pharmacokinetic parameter eAUC30-120 according to the non-compartment model to evaluate the exposure amount; the test results are shown in Table 2: […]

[2] = biological target: T1, AR (Homo sapiens, UniProt P10275, T878A); test: Effects of compounds on AR expression in LNCaP cells (ELISA, DC50); format: cell-based; parameters: Measurement of the Effects of Drugs on the Expression of AR in Cells by ELISA Method; endogenous in cells; host or cells: LNCaP; settings: 24 hours of drug treatment, AR by ELISA
T1 sequence (P10275 1-920 T878A): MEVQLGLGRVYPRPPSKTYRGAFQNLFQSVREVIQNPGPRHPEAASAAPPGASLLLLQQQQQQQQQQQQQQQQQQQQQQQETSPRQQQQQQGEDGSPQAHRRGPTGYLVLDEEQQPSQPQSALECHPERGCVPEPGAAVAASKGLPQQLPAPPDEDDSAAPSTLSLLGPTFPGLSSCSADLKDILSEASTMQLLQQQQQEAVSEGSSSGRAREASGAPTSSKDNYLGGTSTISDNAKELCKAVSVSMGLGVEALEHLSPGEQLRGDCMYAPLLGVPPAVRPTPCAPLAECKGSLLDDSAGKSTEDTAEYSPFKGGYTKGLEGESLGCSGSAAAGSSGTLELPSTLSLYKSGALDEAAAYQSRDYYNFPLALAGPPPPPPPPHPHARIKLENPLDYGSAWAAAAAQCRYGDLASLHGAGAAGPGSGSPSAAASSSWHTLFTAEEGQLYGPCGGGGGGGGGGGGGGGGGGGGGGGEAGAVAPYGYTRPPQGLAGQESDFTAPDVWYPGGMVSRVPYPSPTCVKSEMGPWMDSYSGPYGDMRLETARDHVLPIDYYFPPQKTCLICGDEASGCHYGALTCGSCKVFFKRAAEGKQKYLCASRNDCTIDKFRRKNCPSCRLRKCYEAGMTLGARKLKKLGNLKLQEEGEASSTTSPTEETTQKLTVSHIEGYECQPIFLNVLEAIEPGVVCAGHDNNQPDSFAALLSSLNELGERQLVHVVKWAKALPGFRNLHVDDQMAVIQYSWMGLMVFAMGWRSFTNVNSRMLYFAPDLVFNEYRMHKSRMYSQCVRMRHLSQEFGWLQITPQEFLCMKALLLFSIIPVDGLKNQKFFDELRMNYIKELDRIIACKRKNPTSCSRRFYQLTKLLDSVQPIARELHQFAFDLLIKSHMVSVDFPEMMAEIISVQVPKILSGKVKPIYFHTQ
Summary of the method: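 LNCaP cells at about 15,000/well were treated for 24 h with compound at 0.0001–2 μmol/L final. AR in cell lysates was measured by ELISA (OD450). Inhibition was relative to DMSO control after blank subtraction, and DC50 was calculated from it.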

Compound | eAUC0.5-2 h [1] [µg·h/mL] | DC50 [2] [µM]
CC1(C)C(=O)N(c2ccc(C#N)c(C(F)(F)F)c2F)C(=S)N1c1ccc(-c2ccc(OCCNC(=O)COc3cccc4c3C(=O)N(C3CCC(=O)NC3=O)C4=O)c(F)c2)nc1 (stereo not drawn) [Compound A35] | 0.071 ± 0.051 | 0.117
CC1(C)C(=O)N(c2ccc(C#N)c(C(F)(F)F)c2F)C(=S)N1c1ccc(-c2ccc(OCCNC(=O)COc3cccc4c3C(=O)N(C3CCC(=O)NC3=O)C4=O)c(C#N)c2)nc1 (stereo not drawn) [Compound A36] | 0.029 ± 0.012 | 0.093
CC1(C)C(=O)N(c2ccc(C#N)c(C(F)(F)F)c2F)C(=S)N1c1ccc(-c2ccc(OC3CCN(C(=O)COc4cccc5c4C(=O)N(C4CCC(=O)NC4=O)C5=O)CC3)cc2)nc1 (stereo not drawn) [Compound A37] | 0.098 ± 0.048 | 0.0186
Cc1ncsc1-c1ccc(CNC(=O)[C@@H]2C[C@@H](O)CN2C(=O)[C@@H](NC(=O)COCCCCOc2ccc(-c3ccc(N4C(=S)N(c5ccc(C#N)c(C(F)(F)F)c5F)C(=O)C4(C)C)cn3)cc2F)C(C)(C)C)cc1 [Compound A55] | 0.396 ± 0.079 | 0.0388
Cc1ncsc1-c1ccc(CNC(=O)[C@@H]2C[C@@H](O)CN2C(=O)[C@@H](NC(=O)COCCCCOc2ccc(-c3ccc(N4C(=S)N(c5ccc(C#N)c(C(F)(F)F)c5F)C(=O)C4(C)C)cn3)cc2C#N)C(C)(C)C)cc1 [Compound A57] | 0.182 ± 0.084 | 0.0318
Cc1ncsc1-c1ccc(CNC(=O)[C@@H]2C[C@@H](O)CN2C(=O)[C@@H](NC(=O)COCCCCOc2ccc(-c3ncc(N4C(=S)N(c5ccc(C#N)c(C(F)(F)F)c5F)C(=O)C4(C)C)cc3C(F)(F)F)cc2)C(C)(C)C)cc1 [Compound A62] | 0.498 ± 0.124 | 0.08
Cc1ncsc1-c1ccc(CNC(=O)[C@@H]2C[C@@H](O)CN2C(=O)[C@@H](NC(=O)COCCCCOc2ccc(-c3ncc(N4C(=S)N(c5ccc(C#N)c(C(F)(F)F)c5F)C(=O)C4(C)C)cc3F)cc2)C(C)(C)C)cc1 [Compound A63] | 0.373 ± 0.242 | 0.0379
Cc1ncsc1-c1ccc(CNC(=O)[C@@H]2C[C@@H](O)CN2C(=O)[C@@H](N(C)C(=O)COCCCCOc2ccc(-c3ccc(N4C(=S)N(c5ccc(C#N)c(C(F)(F)F)c5F)C(=O)C4(C)C)cn3)cc2)C(C)(C)C)cc1 [Compound A66] | 0.525 ± 0.106 | 0.213
Cc1ncsc1-c1ccc(CNC(=O)[C@@H]2C[C@@H](O)CN2C(=O)[C@@H](NC(=O)COCCCCOc2ccc(-c3ncc(N4C(=S)N(c5ccc(C#N)c(C(F)(F)F)c5F)C(=O)C4(C)C)cc3F)cc2F)C(C)(C)C)cc1 [Compound A70] | 1.686 ± 0.938 | 0.0621
Cc1ncsc1-c1ccc(CNC(=O)[C@@H]2C[C@@H](O)CN2C(=O)[C@@H](NC(=O)COCCOc2ccc(-c3ccc(N4C(=S)N(c5ccc(C#N)c(C(F)(F)F)c5F)C(=O)C4(C)C)cn3)cc2)C(C)(C)C)cc1 [Compound A71] | 0.287 ± 0.135 | 0.0621
Cc1ncsc1-c1ccc(CNC(=O)[C@@H]2C[C@@H](O)CN2C(=O)[C@@H](NC(=O)COCCCOc2ccc(-c3ccc(N4C(=S)N(c5ccc(C#N)c(C(F)(F)F)c5F)C(=O)C4(C)C)cn3)cc2F)C(C)(C)C)cc1 [Compound A72] | 0.24 ± 0.068 | 0.0351
Cc1ncsc1-c1ccc(CNC(=O)[C@@H]2C[C@@H](O)CN2C(=O)[C@@H](NC(=O)COCCCCCOc2ccc(-c3ccc(N4C(=S)N(c5ccc(C#N)c(C(F)(F)F)c5F)C(=O)C4(C)C)cn3)cc2)C(C)(C)C)cc1 [Compound A73] | 0.189 ± 0.108 | 0.0493
Cc1ncsc1-c1ccc(CNC(=O)[C@@H]2C[C@@H](O)CN2C(=O)[C@@H](NC(=O)COCCCCOc2ccc(-c3ncc(N4C(=S)N(c5ccc(C#N)c(C(F)(F)F)c5F)C(=O)C4(C)C)cc3C(F)(F)F)cc2F)C(C)(C)C)cc1 [Compound A74] | 0.746 ± 0.158 | 0.0778
Cc1ncsc1-c1ccc(CNC(=O)[C@@H]2C[C@@H](O)CN2C(=O)[C@@H](NC(=O)COCCCCOc2c(F)cc(-c3ncc(N4C(=S)N(c5ccc(C#N)c(C(F)(F)F)c5F)C(=O)C4(C)C)cc3F)cc2F)C(C)(C)C)cc1 [Compound A77] | 1.354 ± 0.205 | 0.114
Cc1ncsc1-c1ccc(CNC(=O)[C@@H]2C[C@@H](O)CN2C(=O)[C@@H](NC(=O)COCCCCOc2ccc(-c3ncc(N4C(=S)N(c5ccc(C#N)c(C(F)(F)F)c5F)C(=O)C4(C)C)cc3F)cc2C#N)C(C)(C)C)cc1 [Compound A78] | 0.187 ± 0.066 | 0.0574
Cc1ncsc1-c1ccc(CNC(=O)[C@@H]2C[C@@H](O)CN2C(=O)[C@@H](NC(=O)COCCCCOc2c(F)cc(-c3ncc(N4C(=S)N(c5ccc(C#N)c(C(F)(F)F)c5F)C(=O)C4(C)C)cc3C(F)(F)F)cc2F)C(C)(C)C)cc1 [Compound A79] | 0.95 ± 0.114 | 0.129
Cc1ncsc1-c1ccc(CNC(=O)[C@@H]2C[C@@H](O)CN2C(=O)[C@@H](NC(=O)COCCCCOc2ccc(-c3ccc(N4C(=S)N(c5ccc(C#N)c(C(F)(F)F)c5F)C(=O)C4(C)C)cn3)cc2Cl)C(C)(C)C)cc1 [Compound A83] | 0.574 ± 0.176 | 0.0878
Cc1ncsc1-c1ccc(CNC(=O)[C@@H]2C[C@@H](O)CN2C(=O)[C@@H](NC(=O)COCCCCOc2ccc(-c3ccc(N4C(=S)N(c5ccc(C#N)c(C(F)(F)F)c5F)C(=O)C4(C)C)cn3)cc2C(F)(F)F)C(C)(C)C)cc1 [Compound A84] | 0.774 ± 0.119 | 0.14
Cc1ncsc1-c1ccc(CNC(=O)[C@@H]2C[C@@H](O)CN2C(=O)[C@@H](NC(=O)COCCOCCOc2ccc(-c3ccc(N4C(=S)N(c5ccc(C#N)c(C(F)(F)F)c5F)C(=O)C4(C)C)cn3)cc2F)C(C)(C)C)cc1 [Compound A85] | 0.07 ± 0.023 | 0.033
Cc1ncsc1-c1ccc(CNC(=O)[C@@H]2C[C@@H](O)CN2C(=O)[C@@H](NC(=O)COCCCCCOc2ccc(-c3ncc(N4C(=S)N(c5ccc(C#N)c(C(F)(F)F)c5F)C(=O)C4(C)C)cc3F)cc2F)C(C)(C)C)cc1 [Compound A89] | 0.501 ± 0.10357 | 0.072
Cc1ncsc1-c1ccc(CNC(=O)[C@@H]2C[C@@H](O)CN2C(=O)[C@@H](NC(=O)COCCOCCOc2ccc(-c3ncc(N4C(=S)N(c5ccc(C#N)c(C(F)(F)F)c5F)C(=O)C4(C)C)cc3F)cc2F)C(C)(C)C)cc1 [Compound A90] | 0.096 ± 0.02851 | 0.0364
